Tests used:
[1] = test system: HCT116 cells; assay: Whole cell cytotoxicity assay: Sulforhodamine B; type: cell-based; conditions: Homo sapiens, HCT-116; 100 μM compound; 48 hours incubation with drug; Sulforhodamine B staining; read-out: % Inhibition of HCT116 cell growth @ 100 μM
Protocol: [The source words this procedure for another cell line and reports this cell line under the same test.] The following procedure can be found on the Developmental Therapeutics Program NCl/NIH web site at http://dtp.nci.nih.gov/brancehes/btb/ivclsp.html. • 1. Human tumor cell lines of HT29, A549 and MCF7 are grown in DMEM containing 10% fetal bovine serum and 2 mM L-glutamine. Cells are plated in a 96 well plate at a density of 5000 cells per well in 100 μL of growth medium and incubated at 37° C., 5% CO2, for 24 hours prior to the addition of experimental compounds. • 2. Experimental drugs are solubilized in DMSO for a final concentration of 20 mM immediately prior to use. Drugs are further diluted in growth media for a total of nine drug concentrations and a growth control. At the 24 hour time point, one plate of cells is fixed in situ with TCA as a measurement of the cell population at time zero, or the time of drug addition. • 3. The plates are further incubated with drug for an additional 48 hours. • 4. The cells are fixed in situ by gently aspirating off the culture media and then adding 50 μL of ice cold 10% TCA per well and incubated at 4° C. for 60 minutes. The plates are washed with tap water five times and allowed to air dry for 5 minute. • 5. 50 μL of a 0.4% (w/v) Sulforhodamine B solution in 1% (v/v) acetic acid is added per well and incubated for 30 minutes at room temperature. • 6. Following staining, plates are washed five times with 1% acetic acid to remove any unbound dye and then allowed to air dry for 5 minutes. • 7. Stain is solubilized with 100 μL of 10 mM Tris pH 10.5 per well and placed on an orbital rotator for 5 minutes. • 8. Absorbance is read at 570 nm.

[2] = test system: HDAC; assay: In vitro fluorescent histone deacetylase assay (Biomol HDAC fluorescent activity kit, HeLa cell nuclear extract); type: biochemical; conditions: 100 μM compound; HeLa cell nuclear extract as source of HDAC activity; 50 μM substrate, 10 min at room temperature
Protocol: Histone deacetylase (HDAC) activity assays were performed using the HDAC fluorescent activity assay/drug discovery kit (Biomol Research Laboratories, Plymouth Meeting, Pa.) essentially according to the manufacturer's instructions. The included HeLa cell nuclear extract, which contains a mosaic of HDAC enzymes and other nuclear factors, was used as the source of HDAC activity. The final substrate concentration in the assay mixture was 50 μM. The reaction was allowed to proceed for 10 min at room temperature before stopping the reaction. Test compounds were prepared as 20 mM stock solutions in DMSO (Molecular Biology grade, Sigma-Aldrich Co., St. Louis, Mo.) and stored at −70° C. Serial dilutions of test compounds were prepared in assay buffer immediately prior to testing. DMSO was determined in a separate trial to have no significant effect on the activity of this assay at concentrations up to 5%; the final DMSO concentration in the wells was no more than 2% and therefore DMSO effects were safely neglected. Assays were performed in white polystyrene 96-well half-area assay plates (Corning, Corning, N.Y.) and measured on a Wallace 1420 fluorescent plate reader (Wallac Oy, Turku, Finland) with an excitation wavelength of 355 nm, an emission wavelength of 460 nm, and a 1 sec signal averaging time.

Row | SMILES | inhibition at 100 µM [1] [%] | % Inhibition of HDAC @ 100 μM [2] [%]
1 | O=C(NO)c1cnc(N2CCc3[nH]c4ccc(-c5cncnc5)cc4c3C2)nc1 [Example 51, N-hydroxy-2-{8-(pyrimidin-5-yl)-1,3,4,5-tetrahydro-2H-pyrido[4,3-b]indol-2-yl}pyrimidine-5-carboxamide] | 98.7 | 99.8
2 | O=C(NO)c1cnc(N2CCc3[nH]c4ccc(-c5ccoc5)cc4c3C2)nc1 [Example 52, N-hydroxy-2-{8-[fur-3-yl]-1,3,4,5-tetrahydro-2H-pyrido[4,3-b]indol-2-yl}pyrimidine-5-carboxamide] | 98.9 | 99.7
3 | O=C(NO)c1cnc(N2CCc3[nH]c4ccc(-c5ccc[nH]5)cc4c3C2)nc1 [Example 53, N-hydroxy-2-{8-[1H-pyrrol-2-yl]-1,3,4,5-tetrahydro-2H-pyrido[4,3-b]indol-2-yl}pyrimidine-5-carboxamide] | 96.4 | 100
4 | Cc1ccc2[nH]c3c(c2c1Cl)CN(c1ncc(C(=O)NO)cn1)CC3 [Example 54, N-hydroxy-2-(9-chloro-8-methyl-1,3,4,5-tetrahydro-2H-pyrido[4,3-b]indol-2-yl)pyrimidine-5-carboxamide] | 98.9 | 99.5
5 | O=C(NO)c1cnc(N2CCc3[nH]c4ccc(C(F)(F)F)cc4c3C2)nc1 [Example 55, N-hydroxy-2-(8-trifluoromethyl-1,3,4,5-tetrahydro-2H-pyrido[4,3-b]indol-2-yl)pyrimidine-5-carboxamide] | 99.1 | 99.3
6 | Cc1cc2[nH]c3c(c2cc1C)CN(c1ncc(C(=O)NO)cn1)CC3 [Example 56, N-hydroxy-2-(7,8-dimethyl-1,3,4,5-tetrahydro-2H-pyrido[4,3-b]indol-2-yl)pyrimidine-5-carboxamide] | 99 | 99.8
7 | COc1ccc2[nH]c3c(c2c1)CN(c1ncc(C(=O)NO)cn1)CC3 [Example 57, N-hydroxy-2-(8-methoxy-1,3,4,5-tetrahydro-2H-pyrido[4,3-b]indol-2-yl)pyrimidine-5-carboxamide] | 98.2 | 99.9
8 | O=C(NO)c1cnc(N2CCc3c(n(CCO)c4ccccc34)C2)nc1 [Example 58, N-hydroxy-2-[9-(2-hydroxyethyl)-1,3,4,9-tetrahydro-2H-b-carbolin-2-yl]pyrimidine-5-carboxamide] | 96.3 | 97.7
9 | CN1CCCC(n2c3c(c4ccccc42)CCN(c2ncc(C(=O)NO)cn2)C3)C1 (centres unmarked) [Example 59, N-hydroxy-2-[9-(1-methylpiperidin-3-yl)-1,3,4,9-tetrahydro-2H-b-carbolin-2-yl]pyrimidine-5-carboxamide] | 97.5 | 97.3
10 | O=C(NO)c1cnc(N2CCc3[nH]c4ccc(-c5cccs5)cc4c3C2)nc1 [Example 60, N-hydroxy-2-{8-[thien-2-yl]-1,3,4,5-tetrahydro-2H-pyrido[4,3-b]indol-2-yl}pyrimidine-5-carboxamide] | 99 | 100
11 | Cc1cccc2c3c([nH]c12)CN(c1ncc(C(=O)NO)cn1)CC3 [Example 61, N-hydroxy-2-(8-methyl-1,3,4,9-tetrahydro-2H-b-carbolin-2-yl)pyrimidine-5-carboxamide] | 98.2 | 99.9
12 | O=C(NO)c1cnc(N2CCc3c([nH]c4cc(F)ccc34)C2)nc1 [Example 62, N-hydroxy-2-(7-fluoro-1,3,4,9-tetrahydro-2H-b-carbolin-2-yl)pyrimidine-5-carboxamide] | 96.2 | 99.9
13 | O=C(NO)c1cnc(N2CCc3c([nH]c4ccc(F)cc34)C2)nc1 [Example 63, N-hydroxy-2-(6-fluoro-1,3,4,9-tetrahydro-2H-b-carbolin-2-yl)pyrimidine-5-carboxamide] | 98.9 | 99.8
14 | O=C(NO)c1cnc(N2CCc3c([nH]c4ccc(OCc5ccccc5)cc34)C2)nc1 [Example 64, N-hydroxy-2-(6-benzyloxy-1,3,4,9-tetrahydro-2H-b-carbolin-2-yl)pyrimidine-5-carboxamide] | 98.7 | 99.9
15 | Cc1ccc2c3c([nH]c2c1)CN(c1ncc(C(=O)NO)cn1)CC3 [Example 65, N-hydroxy-2-(7-methyl-1,3,4,9-tetrahydro-2H-b-carbolin-2-yl)pyrimidine-5-carboxamide] | 98.4 | 99.8
16 | Cc1ccc2c(c1)C1CCN(c3ncc(C(=O)NO)cn3)CC1N2 (centres unmarked) [Example 67, N-hydroxy-2-(6-methyl-1,3,4,4a,9,9a-hexahydro-2H-b-carbolin-2-yl)pyrimidine-5-carboxamide] | 98.2 | 99.9
17 | Cc1ccc2[nH]c3c(c2c1)CCN(c1ncc(C(=O)NO)cn1)C3 [Example 68, N-hydroxy-2-(6-methyl-1,3,4,9-tetrahydro-2H-b-carbolin-2-yl)pyrimidine-5-carboxamide] | 98.9 | 99.9
18 | O=C(NO)c1cnc(N2CCc3c([nH]c4ccc(-c5cccc(CN6CCOCC6)c5)cc34)C2)nc1 [Example 70, N-hydroxy-2-{6-[3-(morpholin-4-ylmethyl)phenyl]-1,3,4,9-tetrahydro-2H-b-carbolin-2-yl}pyrimidine-5-carboxamide] | 97.9 | 99.9
19 | CN1CCN(Cc2cccc(-c3ccc4[nH]c5c(c4c3)CCN(c3ncc(C(=O)NO)cn3)C5)c2)CC1 [Example 71, N-hydroxy-2-{6-[3-((4-methylpiperazin-1-yl)methyl)phenyl]-1,3,4,9-tetrahydro-2H-b-carbolin-2-yl}pyrimidine-5-carboxamide] | 98.6 | 99.9
20 | CN1CCN(Cc2ccc(-c3ccc4[nH]c5c(c4c3)CCN(c3ncc(C(=O)NO)cn3)C5)cc2)CC1 [Example 72, N-hydroxy-2-{6-[4-((4-methylpiperazin-1-yl)methyl)phenyl]-1,3,4,9-tetrahydro-2H-b-carbolin-2-yl}pyrimidine-5-carboxamide] | 95.6 | 99.8
21 | CN1CCN(Cc2ccccc2-c2ccc3[nH]c4c(c3c2)CCN(c2ncc(C(=O)NO)cn2)C4)CC1 [Example 73, N-hydroxy-2-{6-[2-((4-methylpiperazin-1-yl)methyl)phenyl]-1,3,4,9-tetrahydro-2H-b-carbolin-2-yl}pyrimidine-5-carboxamide] | 99.4 | 99.6
22 | CC(=O)n1c2c(c3cc(C)ccc31)CN(c1ncc(C(=O)NO)cn1)CC2 [Example 74, N-hydroxy-2-{5-acetyl-8-methyl-1,3,4,5-tetrahydro-2H-pyrido[4,3-b]indol-2-yl}pyrimidine-5-carboxamide] | 93.6 | 99.1
23 | Cc1ccc2c(c1)C1CN(c3ncc(C(=O)NO)cn3)CCC1N2 (centres unmarked) [Example 75, N-hydroxy-2-(8-methyl-1,3,4,4a,5,9b-hexahydro-2H-pyrido[4,3-b]indol-2-yl)pyrimidine-5-carboxamide] | 98.4 | 99.9
24 | Nc1ccc2[nH]c3c(c2c1)CN(c1ncc(C(=O)NO)cn1)CC3 [Example 76, N-hydroxy-2-(8-amino-1,3,4,5-tetrahydro-2H-pyrido[4,3-b]indol-2-yl)pyrimidine-5-carboxamide] | 98.9 | 100
25 | CS(=O)(=O)Nc1ccc2[nH]c3c(c2c1)CN(c1ncc(C(=O)NO)cn1)CC3 [Example 78, N-hydroxy-2-(8-(N-methylsulfonamido)-1,3,4,5-tetrahydro-2H-pyrido[4,3-b]indol-2-yl)pyrimidine-5-carboxamide] | 85.1 | 99.9

From patent publication US7772245B2, “Inhibitors of histone deacetylase” (Miikana Therapeutics, Inc., priority 2005, dated 2010)
